The test system of data set [1] is FGL-induced survival of CGN. Description: Effect of inhibitors of FGFR, MEK and PI3K on FGL-induced survival of CGN. It counts as cell-based, rat. The settings on record: 10 μg/ml FGLd, low KCl. Here is the method: Thereafter the MEK inhibitor PD98059 ([…]), PI3K inhibitor LY294002 (▴) and FGFR inhibitor SU5402 (▪) were added at various concentrations. The addition of the inhibitors followed in all cases by the addition of 10 μg/ml FGLd. […] Results from at least four individual experiments are shown as percentage of the number of live neurons relative to the total number of neurons ±SEM, with control cultures treated with FGLd set at 100%.

Data set [2] concerns dissociated hippocampal neurons. In words: OGD, metabolic activity (MTS) in dissociated hippocampal cell cultures. It counts as cell-based, rat. The settings on record: inhibitor 25 μM together with FGLd for 24 hours before OGD. An excerpt:
(§1) In the present study it was investigated the effect of the FGL peptide on synaptic plasticity, neuronal function and vulnerability following oxygen and glucose deprivation (OGD) in organotypic hippocampal neuronal slice cultures (OHSC) from 7-day-old Wistar rats according to method of Stoppini et al. (1991) Neurosci Methods. 37:173-82 and primary cultures of dissociated hippocampal neurons from 1-day-old rats according to method of Maar et al. (1997) J Neurosci Res. 47:163-72. Primary cell cultures were maintained for 11-12 days and OHSC for 12-14 days prior to adding FGLd.
(§2) The primary cell cultures and OHSC were exposed to OGD for 10 and 20 minutes. Following OGD, the cultures were again supplied with oxygen and glucose and analysed at 1, 4 or 24 hour time point after introduction of OGD exposure. FGLd (or the control peptide FGLc) was added 24 hr before, immediately, or 1 hr or 24 hr after OGD. When administered prior to OGD, FGLd was removed from the medium when introducing OGD. In some cases, the slice cultures were treated with FGLd only at 4 hr after OGD. In addition, the FGFR inhibitor, SU5402 (25 μM), was added together with FGLd in some of the set-ups.
(§3) In hippocampal neuronal cultures, FM 1-43 staining was used to evaluate pre-synaptic function (described above). Cell viability in both primary cell cultures and OHSC was measured using the […] [3-(4,5-dimethylthiazol-2-yl)-2,5-diphenyltetrazolium bromide] assay according to Malich et al, (1997) Toxicology. 124:179-92. In, addition, cell viability in OHSC was measured using propidium iodide (PI) staining according to Laake et al. (1999) Brain Res Brain Res Protoc. 4:173-84.

In data set [3] the test system is hippocampal neurons. Description: Neurite outgrowth, hippocampal neurons. It counts as cell-based, rat. Here is the method:
The cultures were subsequently immunostained for tyrosine hydroxylase. Hippocampal neurons and CGN were plated at a density of 10,000 cells/cm^2 on 8-well permanox chamber slides and incubated for 24 hours in the presence of various concentrations of FGLd. Subsequently the neurons were immunostained for GAP-43. Results from at least five independent experiments for each neuronal culture are shown as percentage ±SEM with the untreated controls set at 100%. *p<0.05, **p<0.01, ***p<0.001 when compared to the controls.
Results from at least four independent experiments are shown as percentage SEM with untreated controls set at 100%. **p<0.01 when compared to the controls.
(§4) Peptide solutions without or with inhibitors of various signal transduction pathways were added to a total volume of 300 μl/cm^2, and the slides were incubated at 37° C. After 24 hours, the neurons were fixed with 4% (v/v) formaldehyde for 20 minutes and thereafter immunostained using primary rabbit antibodies against GAP-43 and Alexa Fluor secondary goat anti-rabbit antibodies. Images of at least 200 neurons for each group in each individual experiment were obtained systematically by using computer assisted fluorescence microscopy as previously described (Rønn et al., 2000 op. cit.). Briefly, a Nikon Diaphot inverted microscope with a Nikon Plan 20× objective (Nikon, Tokyo, Japan) coupled to a video camera (Grundig Electronics, Germany) was used for recordings. The same software package as described above for the dopaminergic neurite outgrowth assay was used to process the recorded images.

In data set [4] the test system is organotypic hippocampal neuronal slice cultures (OHSC). In words: OGD, propidium iodide staining of OHSC. The format is cell-based, rat. Conditions: inhibitor together with FGLd.
Text: as §1, §2, §3

Data set [5] has as its system dissociated hippocampal neurons. In words: OGD, FM 1-43 release in dissociated hippocampal cell cultures. Conditions: together with FGLd. It counts as cell-based, rat.
Text: as §1, §2, §3

Data set [6] relates to hippocampal neurons. In words: FM 1-43 destaining (presynaptic vesicle turnover) in hippocampal neurons. The format is cell-based, rat. Conditions: added simultaneously with FGLd. As to the method:
The values were compared using an unpaired t-test. *p=0.04 (1 h) and **p=0.0032 (48 h). FGLcontrol is a control peptide consisting the sequence […] (SEQ ID NO: 147).
The effects of FGLd on vesicle turnover was estimated in primary cultures of hippocampal neurons from embryonic rats (E19). The cultures were prepared as above. Following 13-16 days in vitro, FGLd was added to the cultures and incubated for 1, 24 or 48 hours. After 48 hours of incubation, the FGFR-inhibitor (SU 5402) was added simultaneously with FGLd to some of the cultures.
After treatment with FGLd the neurons were labeled with the fluorescent membrane probe FM 1-43 as described by Kiryushko et al (2003) J Biol. Chem. 278:12325-34. The rate of FM 1-43 release (destaining of cells) evoked by depolarisation with 90 mM potassium was then evaluated by a time-lapse image acquisition using the Radiance 2000 scanning system and a Nikon eclipse TE200 confocal microscopy.

Data set [7] relates to FGL-induced neurite outgrowth in CGN cultures. In words: Effect of inhibitors of FGFR, MEK and PI3K on FGL-induced neurite outgrowth in CGN. The settings on record: for FGLd-induced neurite outgrowth in CGN in presence of inhibitor: FGLd-treated control = 100%. It counts as cell-based, rat. Here is the method: CGN cultures were grown for 24 hours at a density of 10,000 cells/cm^2 on 8-well permanox slides in the presence of the FGL peptide and an inhibitor. PD98059 ([…]) was added at concentrations of 12.5, 25 and 50 μM simultaneously with 10 μg/ml FGLd; LY294002 (▴) was added at concentrations of 3.5, 7 and 10 μM simultaneously with 27 μg/ml FGLd. SU5402 (▪) was added in concentrations of 20, 40 and 80 μM simultaneously with 27 μg/ml FGLd. After the treatment cells were fixed and immunostained for GAP-43. Results from at least four independent experiments are shown as percentage ±SEM, with FGLd-treated control cultures set at 100%. The dashed line indicates the average neurite length in cultures without FGLd-treatment. *p<0.05, **p<0.01 when compared to the FGLd-treated controls.
as §4

In the next data set the target is T1, rat FGFR1 (IIIC isoform) (Rattus norvegicus, UniProt Q04589).
T1 construct: expressed in transfected cells; host or cells: HEK293 cells, transiently transfected with a pcDNA3.1(+) plasmid (Invitrogen)
In words: Phosphorylation of FGFR1 in transfected HEK293 cells. It counts as cell-based. Conditions: 20 μg/ml; 20 min; HEK293 cells transfected with rat FGFR1. As to the method:
The EFL peptide is derived from the Fn 3, 2 module of NCAM and represents the E strand-loop-G strand part of the module. For the experiments the peptide was synthesised as described above. […] The peptide is also capable to bind and stimulate FGFR1 in cells expressing the receptor, wherein the peptide induces the receptor phosphorylation (at concentration 20 μg/ml by more then 300%). Phosphorylation of FGFR1 was studied using the following assay. […] Cells were grown for another 24 hrs in full medium, and then shifted to starvation media (DMEM 1965) overnight. FGFR transfected cells were stimulated for 20 min with the EFL monomer, lysed in 8M urea, 1 mM orthovanadate (in PBS) and purified from the lysate via the His-tag as follows: The lysate was loaded on Ni^2+/NTA-sepharose (Qiagen), washed with lysis buffer plus 10 mM imidazole, and the FGFR was eluted with lysis buffer plus 250 mM imidazole. The purified FGFR was analysed by immunoblotting using anti-pentahis (Qiagen) or anti-phosphotyrosine (PY20, Transduction Laboratories) antibodies. The bands were visualised by chemilumiscense and the band density was measured using a GeneGnome apparatus (SynGene).

In data set [8] the test system is cerebellar granule neurons (CGN). In words: Survival of CGN induced to undergo apoptosis by low KCl. The settings on record: individual monomer; low KCl.
Experimental: Cerebella granular meurons (CGN) (e and f) from postnatal day 7 rats were grown at a density of 100,000 cells/cm^2 for 7 days on poly-L-lysine coated microtiter plates in the medium containing 40 mM KCl, then the medium was substituted to a 5 mM KCl containing medium supplemented with various concentrations of FGLd.
For the experiments cerebellar tissue was dissected in modified Krebs-Ringer solution kept on ice, and treated as described for the hippocampal neurons above. All cell cultures were incubated at 37° C. in a humidified atmosphere containing 5% CO2.
Primary cultures of CGN were plated at a density of 100,000 cells/cm^2 on poly-L-lysine coated 8-well permanox slides in Neurobasal-A medium (Gibco, BRL) supplemented with 2% (v/v) B27, 0.5% (v/v) glutamax, 100 U/ml penicillin, 100 μg/ml streptomycin and KCl, making the final concentration of KCl in the medium 40 mM. 24 hours after plating, cytosine-β-D-arabinofuranoside (Ara-C; Sigma-Aldrich) was added to a final concentration of 10 μM to avoid proliferation of glial cells, after which the neurons were allowed to differentiate for further six days at 37° C. Apoptotic cell death was induced by washing twice and changing the medium to Basal Medium Eagle (BME; Gibco BRL) supplemented with 1% (v/v) glutamine, 100 U/ml penicillin and 100 μg/ml streptomycin, 3.5 g D-glucose/l and 1% (v/v) sodium pyruvate (Gibco BRL) together with various concentrations of peptide. Thereby the concentration of potassium in the cultures was reduced to 5 mM KCl. Two days after induction of apoptosis, the cells were fixed with 4% formaldehyde and stained with Hoechst 33258 as described for the survival assay employing hippocampal neurons.
Data set [9] has as its system FGL-induced neurite outgrowth in CGN cultures. The settings on record: previously found; cited from earlier work.

T1 sequence (Q04589 22-822): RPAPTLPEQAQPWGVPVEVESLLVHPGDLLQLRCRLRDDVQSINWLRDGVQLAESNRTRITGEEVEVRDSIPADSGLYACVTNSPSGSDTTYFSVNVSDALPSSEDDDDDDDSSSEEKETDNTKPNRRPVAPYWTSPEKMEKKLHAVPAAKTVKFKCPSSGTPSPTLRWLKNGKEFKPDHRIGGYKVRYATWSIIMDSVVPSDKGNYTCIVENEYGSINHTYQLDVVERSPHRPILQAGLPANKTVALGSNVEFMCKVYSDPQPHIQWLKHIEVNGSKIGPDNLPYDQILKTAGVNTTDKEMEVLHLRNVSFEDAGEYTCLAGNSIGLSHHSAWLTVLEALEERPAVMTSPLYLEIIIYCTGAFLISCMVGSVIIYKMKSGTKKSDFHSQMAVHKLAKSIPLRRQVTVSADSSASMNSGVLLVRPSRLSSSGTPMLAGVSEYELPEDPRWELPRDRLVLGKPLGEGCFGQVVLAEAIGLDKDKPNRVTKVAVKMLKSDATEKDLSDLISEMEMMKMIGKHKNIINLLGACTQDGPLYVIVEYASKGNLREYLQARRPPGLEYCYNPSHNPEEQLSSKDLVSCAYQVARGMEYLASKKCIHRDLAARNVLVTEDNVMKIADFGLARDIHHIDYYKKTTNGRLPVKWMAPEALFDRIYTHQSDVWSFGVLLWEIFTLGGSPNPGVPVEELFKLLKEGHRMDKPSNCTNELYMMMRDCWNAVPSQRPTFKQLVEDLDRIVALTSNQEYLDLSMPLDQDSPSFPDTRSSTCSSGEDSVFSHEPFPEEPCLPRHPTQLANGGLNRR

On to `Cc1c[nH]c(/C=C2\C(=O)Nc3ccccc32)c1CCC(=O)O` [SU5402], for which the figures for the “inhibition of FGLd-induced survival of CGN” value in [1] (20 μM inhibitor) and in [1] (40 μM inhibitor) were “significantly inhibited the survival response to FGLd” and “reduced the FGLd-induced survival to the survival rate of the untreated apoptosis-induced control neurons”, respectively. In [2], the “metabolic activity after OGD, FGLd pretreatment with FGFR-inhibitor present” value is listed as “did not diminish the OGD-induced reduction in metabolic activity”. For the same compound, the “block of EFL-stimulated neuritogenic activity by inhibitor of FGFR1” value with hippocampal neurons [3] (with EFL peptide) is on record as “specifically blocked”. Also, the “PI staining after OGD, pre-incubation with FGFR-inhibitor together with FGLd” value in data set [4] is recorded as “the PI staining was similar to that of OGD alone”. Also, the “effect of FGFR-inhibitor on FGLd action on OGD-induced decrease in FM 1-43 release” value in data set [5] is listed as “abrogated the effect of FGLd”. In addition, the “effect of FGFR inhibitor on FGLd-increased FM 1-43 destaining” value with hippocampal neurons [6] is given as “abolished the effect of FGLd”. Also, the “FGLd-induced neurite outgrowth in CGN in presence of inhibitor” value in [7] (80 μM inhibitor, 27 μg/ml FGLd) was 35%. Besides, the “effect on neurite outgrowth in control CGN cultures not treated with FGLd” value in data set [7] (data not shown) was “without significant effect on neurite outgrowth”.
Consider “NIEVWVEAENALGKKV (Interleukin-6 receptor beta chain [Swiss-Prot: Q00560]: FGFR binding motif) [EFL peptide]”, for which the “neurite outgrowth of rat hippocampal neurons” value in the data set on hippocampal neurons [3] (individual monomer) is reported as “strongly stimulate neurite outgrowth”. Further, the “FGFR1 phosphorylation induced by the peptide” value in the data set with rat FGFR1 (IIIC isoform) is over 300%. Also, the “survival of rat cerebellar neurons” value in data set [8] is “stimulate survival”.
On to `COc1cccc(-c2cc(=O)c3ccccc3o2)c1N` [PD98059], for which the “inhibition of FGLd-induced survival of CGN” value in [1] (12.5 μM inhibitor) is “inhibited cell survival induced by FGLd to the level of the control cultures”. Further, the “effect on basal neurite outgrowth in CGN” value in data set [9] is listed as “not to affect the basal neurite outgrowth”. Also, the “FGLd-induced neurite outgrowth in CGN in presence of inhibitor” value in data set [7] (inhibitor above 25 μM, 10 μg/ml FGLd) is listed as 75%.
